Laboratory results: publication PMC9307983 (Acta Naturae, 2022)

Key:
MGL, Ser339Ala = MGL, Ser339Ala (Citrobacter freundii, UniProt Q84AR1, S339A); test: biochemical; format: biochemical
Description: The kinetic parameters of the γ- and β-elimination reactions were determined at 30°C in the conjugate reaction with HOHxoDH or LDH based on a decrease in NADH absorbance at 340 nm (Δε = 6,220 M^–1cm^–1). The reaction mixtures contained a 100-mM potassium phosphate buffer, pH 8.0, 0.1 mM PLP, 1 mM DTT, 0.2 mM NADH, 70 μg HOHxoDH or 10 U LDH, and variable amounts of the substrate in a total volume of 1 mL. The reaction was initiated by the addition of 10 μg of the enzyme.
The kinetic parameters were calculated according to the Michaelis–Menten equation using the EnzFitter software. In the calculations, an enzyme subunit molecular weight of 43 kDa was used. The inhibition constants were also determined using the EnzFitter software.

Ser339Ala MGL = Ser339Ala MGL (Citrobacter freundii, UniProt Q84AR1, S339A); test: coenzyme (PLP) dissociation constant by ultrafiltration, Ser339Ala MGL apoenzyme; format: binding; conditions: mutant enzyme, pH 8.0, 30°C, Scatchard coordinates
Description: The apoenzyme and holoenzyme were prepared in a 50-mM potassium phosphate buffer, pH 8.0, containing 1 mM DTT and 1 mM EDTA. The holoenzyme was prepared by adding a 50-fold molar excess of PLP. The mixture was incubated at 25°C for 1 h. The excess PLP was removed by dialysis. The apoenzyme was prepared by adding a 100-fold molar excess of DL-penicillamine to the sample [42]. The mixture was incubated at 25°C for 1 h. DL-Penicillamine was removed by dialysis. The procedure was repeated until the enzyme activity decreased to 1% of the initial activity. The PLP content in the sample was determined in 100 mM NaOH using the molar extinction coefficient of PLP at 390 nm (ε = 6,600 M^–1cm^–1 [43]).
The PLP dissociation constant was determined by ultrafiltration. Varying amounts of PLP (in a range of 5 × 10^–3 to 1.2 × 10^–1 mM) were added to the 8 × 10^–3 mM apoenzyme in a 50-mM potassium phosphate buffer, pH 8.0, containing 1 mM DTT and 1 mM EDTA. After incubation at 30°C for 30 min, free PLP was separated by centrifugation in a Centricon-30 microconcentrator (Amicon, United States) at 5,000 rpm and 4°C for 5 min. The PLP content in each sample was determined in 100 mM NaOH. The data were processed in Scatchard coordinates.

CSCC[C@H](N)C(=O)O = test: purified protein, by the assay type; conditions: other: Ser339Ala MGL, 30°C, pH 8.0, coupled with HOHxoDH or LDH

In the case of `C[C@H](N)C(=O)O` [L-Ala, L-alanine], the Ki (MGL, Ser339Ala) is reported as 1250 ± 320 µM.
`Cc1ncc(COP(=O)(O)O)c(C=O)c1O` [PLP, pyridoxal 5’-phosphate] was tested, and the Kd (Ser339Ala MGL) was 1.01 µM.
Work on “MGL, Ser339Ala (Citrobacter freundii; S339A)” yielded a Km (CSCC[C@H](N)C(=O)O) of 1840 ± 150 µM and a kcat (CSCC[C@H](N)C(=O)O) of 0.21 s⁻¹.
